According to PubChem BioAssay AID1259407 (Chemical Carcinogenesis Research Information System (CCRIS), 2018):
Activity calls are given as the source filed them. No rule for the calls is given here.

Test system: CCRIS mutagenicity, Ames/micronucleus/aberration tests
Assay: CCRIS mutagenicity studies
[1] = Test System: AMES SALMONELLA TYPHIMURIUM, Strain/Indicator: TA97A, Metabolic Activation: NONE, Method: STANDARD PLATE
[2] = Test System: AMES SALMONELLA TYPHIMURIUM, Strain/Indicator: TA98, Metabolic Activation: NONE, Method: STANDARD PLATE
[3] = Test System: AMES SALMONELLA TYPHIMURIUM, Strain/Indicator: TA100, Metabolic Activation: NONE, Method: STANDARD PLATE
[4] = Test System: AMES SALMONELLA TYPHIMURIUM, Strain/Indicator: TA1535, Metabolic Activation: NONE, Method: STANDARD PLATE
[5] = Test System: AMES SALMONELLA TYPHIMURIUM, Strain/Indicator: TA1537, Metabolic Activation: NONE, Method: STANDARD PLATE

NCCc1c[nH]c2ccc(O)cc12 (tested in a mixture with another compound)
mutagenic call [1]: inactive; negative
mutagenic call (Test System: AMES SALMONELLA TYPHIMURIUM, Strain/Indicator: TA97A, Metabolic Activation: RAT LIVER S-9, PHENOBARBITOL/BETA-NAPHTHOFLAVONE, Method: STANDARD PLATE): inactive; negative
mutagenic call [2]: inactive; negative
mutagenic call (Test System: AMES SALMONELLA TYPHIMURIUM, Strain/Indicator: TA98, Metabolic Activation: RAT LIVER S-9, PHENOBARBITOL/BETA-NAPHTHOFLAVONE, Method: STANDARD PLATE): inactive; negative
mutagenic call [3]: inactive; negative
mutagenic call (Test System: AMES SALMONELLA TYPHIMURIUM, Strain/Indicator: TA100, Metabolic Activation: RAT LIVER S-9, PHENOBARBITOL/BETA-NAPHTHOFLAVONE, Method: STANDARD PLATE): inactive; negative
mutagenic call [4]: inactive; negative
mutagenic call (Test System: AMES SALMONELLA TYPHIMURIUM, Strain/Indicator: TA1535, Metabolic Activation: RAT LIVER S-9, PHENOBARBITOL/BETA-NAPHTHOFLAVONE, Method: STANDARD PLATE): inactive; negative
mutagenic call [5]: inactive; negative
mutagenic call (Test System: AMES SALMONELLA TYPHIMURIUM, Strain/Indicator: TA1537, Metabolic Activation: RAT LIVER S-9, PHENOBARBITOL/BETA-NAPHTHOFLAVONE, Method: STANDARD PLATE): inactive; negative
mutagenic call (Test System: E.COLI, Strain/Indicator: WP2/UVRA, Metabolic Activation: NONE, Method: STANDARD PLATE): inactive; negative
mutagenic call (Test System: E.COLI, Strain/Indicator: WP2/UVRA, Metabolic Activation: RAT LIVER S-9, PHENOBARBITOL/BETA-NAPHTHOFLAVONE, Method: STANDARD PLATE): inactive; negative

O=C([O-])[C@H](O)[C@@H](O)[C@H](O)[C@H](O)CO.O=C([O-])[C@H](O)[C@@H](O)[C@H](O)[C@H](O)CO.[Cu+2]
mutagenic call (Test System: AMES SALMONELLA TYPHIMURIUM, Strain/Indicator: TA97, Metabolic Activation: NONE, Method: PREINCUBATION): inactive; negative
mutagenic call (Test System: AMES SALMONELLA TYPHIMURIUM, Strain/Indicator: TA97, Metabolic Activation: S-9, Method: PREINCUBATION): inactive; negative
mutagenic call (Test System: AMES SALMONELLA TYPHIMURIUM, Strain/Indicator: TA102, Metabolic Activation: NONE, Method: PREINCUBATION): inactive; negative
mutagenic call (Test System: AMES SALMONELLA TYPHIMURIUM, Strain/Indicator: TA102, Metabolic Activation: S-9, Method: PREINCUBATION): inactive; negative

C/C=C(\C)C=O
mutagenic call (Test System: MOUSE LYMPHOMA, Strain/Indicator: L5178Y (TK+/TK-), Metabolic Activation: NONE, Method: SUSPENSION/PLATE): active; positive. reevaluation of results: inconclusive
mutagenic call (Test System: MOUSE LYMPHOMA, Strain/Indicator: L5178Y (TK+/TK-), Metabolic Activation: RAT, LIVER, S-9, AROCLOR 1254, Method: SUSPENSION/PLATE): inactive; negative. reevaluation of results: negative

C=CCc1cc(OC)c2c(c1)OCO2
mutagenic call (Test System: UDS RAT HEPATOCYTES, Strain/Indicator: THY INCORP, Metabolic Activation: NONE, Method: LIQUID SCINTILLATION COUNTING): inactive; negative

CC(C)c1ccc(/C=C/c2ccc([N+](=O)[O-])cc2)cc1
mutagenic call [2]: inactive; negative
mutagenic call (Test System: AMES SALMONELLA TYPHIMURIUM, Strain/Indicator: TA98, Metabolic Activation: RAT, LIVER, S-9, AROCLOR, Method: STANDARD PLATE): active; positive
mutagenic call [3]: inactive; negative
mutagenic call (Test System: AMES SALMONELLA TYPHIMURIUM, Strain/Indicator: TA100, Metabolic Activation: RAT, LIVER, S-9, AROCLOR, Method: STANDARD PLATE): active; positive

CCSCCSP(=S)(OC)OC
mutagenic call [1]: inactive; negative
mutagenic call (Test System: AMES SALMONELLA TYPHIMURIUM, Strain/Indicator: TA97A, Metabolic Activation: PLANT, HOMOGENATE, S-14, Method: STANDARD PLATE): inactive; negative
mutagenic call (Test System: AMES SALMONELLA TYPHIMURIUM, Strain/Indicator: TA97A, Metabolic Activation: S-9, Method: STANDARD PLATE): inactive; negative
mutagenic call [2]: inactive; negative
mutagenic call (Test System: AMES SALMONELLA TYPHIMURIUM, Strain/Indicator: TA98, Metabolic Activation: PLANT, HOMOGENATE, S-14, Method: STANDARD PLATE): inactive; negative
mutagenic call (Test System: AMES SALMONELLA TYPHIMURIUM, Strain/Indicator: TA98, Metabolic Activation: S-9, Method: STANDARD PLATE): inactive; negative
mutagenic call [3]: inactive; negative
mutagenic call (Test System: AMES SALMONELLA TYPHIMURIUM, Strain/Indicator: TA100, Metabolic Activation: PLANT, HOMOGENATE, S-14, Method: STANDARD PLATE): inactive; negative
mutagenic call (Test System: AMES SALMONELLA TYPHIMURIUM, Strain/Indicator: TA100, Metabolic Activation: S-9, Method: STANDARD PLATE): inactive; negative
mutagenic call (Test System: AMES SALMONELLA TYPHIMURIUM, Strain/Indicator: TA1535, Metabolic Activation: PLANT, HOMOGENATE, S-14, Method: STANDARD PLATE): inactive; negative
mutagenic call (Test System: AMES SALMONELLA TYPHIMURIUM, Strain/Indicator: TA1535, Metabolic Activation: S-9, Method: STANDARD PLATE): inactive; negative
mutagenic call (Test System: AMES SALMONELLA TYPHIMURIUM, Strain/Indicator: TA1535, Metabolic Activation: S-9 MIX, Method: STANDARD PLATE): active; positive

O=[N+]([O-])c1cccc(NS(=O)(=O)c2cccc3cccnc23)c1
mutagenic call [2]: inactive; negative
mutagenic call (Test System: AMES SALMONELLA TYPHIMURIUM, Strain/Indicator: TA98, Metabolic Activation: RAT, LIVER, S-9, AROCLOR 1254, Method: STANDARD PLATE): inactive; negative
mutagenic call [3]: inactive; negative
mutagenic call (Test System: AMES SALMONELLA TYPHIMURIUM, Strain/Indicator: TA100, Metabolic Activation: RAT, LIVER, S-9, AROCLOR 1254, Method: STANDARD PLATE): inactive; negative
mutagenic call [4]: inactive; negative
mutagenic call (Test System: AMES SALMONELLA TYPHIMURIUM, Strain/Indicator: TA1535, Metabolic Activation: RAT, LIVER, S-9, AROCLOR 1254, Method: STANDARD PLATE): inactive; negative
mutagenic call [5]: inactive; negative
mutagenic call (Test System: AMES SALMONELLA TYPHIMURIUM, Strain/Indicator: TA1537, Metabolic Activation: RAT, LIVER, S-9, AROCLOR 1254, Method: STANDARD PLATE): inactive; negative
